Data from ChEMBL document CHEMBL1133868, “Synthesis of P(1)-Citronellyl-P(2)-alpha-D-pyranosyl pyrophosphates as potential substrates for the E. coli undecaprenyl-pyrophosphoryl-N-acetylglucoseaminyl transferase MurG” (Bioorg Med Chem Lett, 2001).
Active and inactive are the calls of the source. No cut-off for these calls is given here.

System: Bacillus subtilis
Experiment: Tested for antimicrobial activity against Bacillus Subtilis; Not active
Assay type: functional, organism-based

Row | Compound | Activity
1 | CC(=O)NC1C(OP(=O)(O)OP(=O)(O)OCC[C@H](C)CCC=C(C)C)OC(CO)C(O)C1O[C@H](C)C(=O)O (some centres not stated) | inactive
2 | CC(C)=CCC[C@@H](C)CCOP(=O)(O)OP(=O)(O)O[C@H]1O[C@@H](CO)[C@@H](O)[C@H](O)[C@@H]1O | inactive
